US9199983B2, “3-aryl-6-aryl-[1,2,4]triazolo[4,3-α]pyridines as inhibitors of cell proliferation and the use thereof” (priority 2010, dated 2015)
Where a name gives a salt, the structure may show the parent alone.

Assays:
[1] = tested on: breast cancer cell line T47D; assay: MTT cancer cell cytotoxicity assay, T47D; type: cell-based, human; settings: Homo sapiens, T47D cells, 48-72 h
Procedure: (§1) Identification of 3-(2-methoxyphenyl)-6-(4-methoxyphenyl)-[1,2,4]triazolo[4,3-a]pyridine and analogs as inhibitors of cell proliferation that were evaluated with standard MTT cancer cell cytotoxicity assay (IC50)
(§2) Human lung cancer cell line A549, breast cancer cell line T47D, liver cancer cell lines HepG2 and SMMC7721 as well as a mouse melanoma cell line B16F10 were used in the study. The cells were cultured in corresponding growth media recommended by American Type Culture Collection (ATCC) with the supplementation of penicillin G (100 U/ml)/streptomycin (100 µg/ml), and 10% fetal bovine serum (Hangzhou Sijiqing Biological Engineering Materials, Co., Ltd. China) at 37° C. in a humidified atmosphere containing 5% CO2. Cells at about 80% confluency were harvested by trypsinization. Cells were centrifuged, re-suspended in fresh growth media and counted. Corresponding numbers of cells were seeded to 96-well cell culture plates (HepG2 cell, T-47D and A549 cells at 3000 cells/well, SMMC-7721 cells at 5000 cells/well and B16F10 cells at 2000 cells/well) in a total volume of […]. Cells were incubated in CO2 incubator over night to allow the cells to attach. In next day, […] of medium containing testing (from 10 μM to 1 nM) or reference compounds was added to each well of the cells. Media without compound were used as 100% control. Cells were treated with each concentration of compounds in triplicates to ensure data accuracy. Cells were incubated with compounds in CO2 incubator for an additional 48-72 h at 37° C. After incubation, cells were removed from the CO2 incubator and […] of 5 mg/ml MTT (3-(4,5-dimethylthiazole-2-yl)-2,5-diphenyltetrazoliumbromide, Sigma) solution in PBS was added to each well. Cells were returned to CO2 incubator and incubated for additional 4 h. After the incubation, media were removed by aspiration and […] DMSO was added to each well. Plates were sealed with aluminum foil and shaked mildly on an orbital shaker for 10 min at room temperature. The absorption was measured at 550 nm with a plate reader (Varioskan Flash, Thermo Fisher Scientific) with 660 nm reading used as background control. The relative absorbance readings were calculated by subtracting readings at 660 nm from that at 550 nm. The relative absorbance was plotted again the concentrations of the testing compounds and the plots were fitted with a one-site lg(IC50) equation using Prism 5 software (GraphPad Software, Inc). The equation used in the curve fitting is as follows: relative absorbance reading=background reading+(maximal reading−brackground reading)/(1+10 ^(compound concentration-log IC50)). The background reading used in the calculation was obtained with 100% cell death using a reference anticancer drug, whereas the maximal reading was obtained in the well with no added compound. The IC50 value calculated from the equation represents the cytotoxic potency of a particular compound.

[2] = tested on: liver cancer cell line SMMC7721; assay: MTT cancer cell cytotoxicity assay, SMMC7721; type: cell-based, human; settings: Homo sapiens, SMMC-7721, SMMC7721 cells, 48-72 h
Procedure: as §1, §2

[3] = tested on: Human lung cancer cell line A549; assay: MTT cancer cell cytotoxicity assay, A549; type: cell-based; settings: Homo sapiens, A549 cells, 48-72 h
Procedure: as §1, §2

[4] = tested on: liver cancer cell line HepG2; assay: MTT cancer cell cytotoxicity assay, HepG2; type: cell-based, human; settings: Homo sapiens, HepG2 cells, 48-72 h
Procedure: as §1, §2

SMILES	IC50 [1]	IC50 [2]	IC50 [3]	IC50 [4]
COc1ncc(-c2ccc3nnc(-c4ccccc4OC)n3c2)cn1 [Example 18, 3-(2-Methoxyphenyl)-6-(2-methoxypyrimidin-5-yl)-[1,2,4]triazolo[4,3-a]pyridine]	> 10000 nM	> 10000 nM	> 10000 nM	> 10000 nM
COc1ccc(-c2ccc3nnc(-c4ccccc4OC)n3c2)cc1OC [Example 31, 6-(3,4-Dimethoxyphenyl)-3-(2-methoxyphenyl)-[1,2,4]triazolo[4,3-a]pyridine]	765 nM	492 nM	241 nM	474 nM
CNc1ccccc1-c1nnc2ccc(-c3ccc(OC)cc3)cn12 [Example 79, 6-(4-Methoxyphenyl)-3-(2-methylaminophenyl)-[1,2,4]triazolo[4,3-a]pyridine]	73 nM	69 nM	167 nM	122 nM
COc1ccc(-c2ccc3nnc(-c4ccc(N)cc4OC)n3c2)cc1 [Example 87, 3-(4-Amino-2-methoxyphenyl)-6-(4-methoxyphenyl)-[1,2,4]triazolo[4,3-a]pyridine hydrochloride]	308 nM	175 nM	711 nM	356 nM
COc1ccc([N+](=O)[O-])cc1-c1nnc2ccc(-c3ccc(OC)c([N+](=O)[O-])c3)cn12 [Example 42, 6-(4-Methoxy-3-nitrophenyl)-3-(2-methoxy-5-nitrophenyl)-[1,2,4]triazolo[4,3-a]pyridine]	279 nM	230 nM	489 nM	312 nM
COc1ccc(-c2ccc3nnc(-c4ccccc4OC)n3c2)cn1 [Example 15, 3-(2-Methoxyphenyl)-6-(6-methoxypyridin-3-yl)-[1,2,4]triazolo[4,3-a]pyridine]	2010 nM	1110 nM	1030 nM	1730 nM
COc1ccc(-c2ccc3nnc(-c4c(OC)ccc(Br)c4OC)n3c2)cc1 [Example 65, 3-(3-Bromo-2,6-dimethoxyphenyl)-6-(4-methoxyphenyl)-[1,2,4]triazolo[4,3-a]pyridine]	569 nM	199 nM	2460 nM	944 nM
COc1ccc(-c2ccc3nnc(-c4ccccc4OC)n3c2)c(C)c1 [Example 8, 6-(4-Methoxy-2-methylphenyl)-3-(2-methoxyphenyl)-[1,2,4]triazolo[4,3-a]pyridine]	103 nM	24 nM	91 nM	55 nM
COc1ccccc1-c1nnc2ccc(-c3ccc(O)cc3)cn12 [Example 13, 6-(4-Hydroxyphenyl)-3-(2-methoxyphenyl)-[1,2,4]triazolo[4,3-a]pyridine]	660 nM	1010 nM	2350 nM	1280 nM
COc1ccc(-c2ccc3nnc(-c4ccc(OC)cc4)n3c2)cc1 [Example 64, 3,6-Bis(4-methoxyphenyl)-[1,2,4]triazolo[4,3-a]pyridine]	341 nM	150 nM	641 nM	568 nM
COc1ccc(-c2ccc3nnc(-c4cccc(OC)c4)n3c2)cc1 [Example 77, 3-(3-Methoxyphenyl)-6-(4-methoxyphenyl)-[1,2,4]triazolo[4,3-a]pyridine]	1950 nM	962 nM	4880 nM	2210 nM
COc1ccc(-c2ccc3nnc(-c4c(F)cccc4OC)n3c2)cc1 [Example 63, 3-(6-Fluoro-2-methoxyphenyl)-6-(4-methoxyphenyl)-[1,2,4]triazolo[4,3-a]pyridine]	149 nM	36 nM	174 nM	236 nM
COc1ccc(-c2ccc3nnc(-c4ccccc4N(C)C)n3c2)cc1 [Example 80, 3-(2-Dimethylaminophenyl)-6-(4-methoxyphenyl)-[1,2,4]triazolo[4,3-a]pyridine]	62 nM	35 nM	118 nM	81 nM
COc1ccc(-c2ccc3nnc(-c4ccc(OC)c(OC)c4OC)n3c2)cc1 [Example 72, 6-(4-Methoxyphenyl)-3-(2,3,4-trimethoxyphenyl)-[1,2,4]triazolo[4,3-a]pyridine]	8160 nM	4140 nM	> 10000 nM	> 10000 nM
COc1ccccc1-c1nnc2ccc(-c3ccc(C)c(F)c3)cn12 [Example 33, 6-(3-Fluoro-4-methylphenyl)-3-(2-methoxyphenyl)-[1,2,4]triazolo[4,3-a]pyridine]	804 nM	164 nM	630 nM	772 nM
COc1ccccc1-c1nnc2ccc(-c3ccc4c(c3)OCO4)cn12 [Example 14, 6-(Benzo[d][1,3]dioxol-5-yl)-3-(2-methoxyphenyl)-[1,2,4]triazolo[4,3-a]pyridine]	1440 nM	110 nM	1270 nM	797 nM
COc1ccc(-c2cn3c(-c4ccccc4OC)nnc3cc2C)cc1 [Example 54, 3-(2-Methoxyphenyl)-6-(4-methoxyphenyl)-7-methyl-[1,2,4]triazolo[4,3-a]pyridine]	151 nM	94 nM	428 nM	134 nM
COc1ccccc1-c1nnc2ccc(-c3ccc(O)c(C)c3)cn12 [Example 41, 6-(4-Hydroxy-3-methylphenyl)-3-(2-methoxyphenyl)-[1,2,4]triazolo[4,3-a]pyridine]	129 nM	117 nM	212 nM	155 nM
COc1ccc(-c2ccc3nnc(-c4cccnc4OC)n3c2)cc1 [Example 86, 6-(4-Methoxyphenyl)-3-(2-methoxypyridin-3-yl)-[1,2,4]triazolo[4,3-a]pyridine]	40 nM	32 nM	41 nM	58 nM
COc1ccccc1-c1nnc2ccc(-c3cc(OC)c(OC)c(OC)c3)cn12 [Example 29, 3-(2-Methoxyphenyl)-6-(3,4,5-trimethoxyphenyl)-[1,2,4]triazolo[4,3-a]pyridine]	> 10000 nM	> 10000 nM	> 10000 nM	> 10000 nM
COc1ccc(-c2ccc3nnc(-c4cc(OC)c(OC)cc4OC)n3c2)cc1 [Example 69, 6-(4-Methoxyphenyl)-3-(2,4,5-trimethoxyphenyl)-[1,2,4]triazolo[4,3-a]pyridine]	834 nM	307 nM	833 nM	915 nM
COc1cc(-c2ccc3nnc(-c4ccccc4OC)n3c2)ccc1O [Example 56, 6-(4-Hydroxy-3-methoxyphenyl)-3-(2-methoxyphenyl)-[1,2,4]triazolo[4,3-a]pyridine]	1480 nM	1820 nM	> 10000 nM	706 nM
COc1ccc(-c2ccc3nnc(-c4cc(OC)ccc4OC)n3c2)cc1 [Example 62, 3-(2,5-Dimethoxyphenyl)-6-(4-methoxyphenyl)-[1,2,4]triazolo[4,3-a]pyridine]	156 nM	42 nM	142 nM	77 nM
COc1ccc(-c2ccc3nnc(-c4cc(C)ccc4OC)n3c2)cc1 [Example 76, 3-(2-Methoxy-5-methylphenyl)-6-(4-methoxyphenyl)-[1,2,4]triazolo[4,3-a]pyridine]	633 nM	104 nM	533 nM	283 nM
COc1ccc(-c2ccc3nnc(-c4ccc(F)cc4OC)n3c2)cc1 [Example 58, 3-(4-Fluoro-2-methoxyphenyl)-6-(4-methoxyphenyl)-[1,2,4]triazolo[4,3-a]pyridine]	54 nM	17 nM	59 nM	35 nM
COc1ccccc1-c1nnc2ccc(-c3ccc(C)cc3)cn12 [Example 22, 3-(2-Methoxyphenyl)-6-(4-methylphenyl)-[1,2,4]triazolo[4,3-a]pyridine]	147 nM	51 nM	192 nM	224 nM
